# From US7662553B2, “Polymorphisms in the ERCC1 gene for predicting treatment outcome” (University of Southern California, priority 2002, dated 2010)
# Key:
# [1] = test system: locally advanced rectal cancer; assay: Time to local recurrence after adjuvant pelvic irradiation plus 5-FU infusion (Example 1); assay type: in vivo, human
# Procedure: Methods: Seventy-three (73) patients with locally advanced rectal cancer (UICC stage II and III) were selected. They had been previously treated with adjuvant pelvic irradiation (45 Gy) to the whole pelvis with an additional boost up to 54 Gy plus 5-FU infusion therapy following tumor resection tissue acquisition during surgery. QRT-PCR (a fluorescence-based, quantitative real-time detection method (Taqman®)) was performed on RNA extracted from formalin-fixed, paraffin-embedded, laser-capture-microdissected tissue to establish gene expression levels. The mRNA was reverse transcribed to cDNA and the genes of interest were quantified as well as an internal reference gene (β-Actin) as a control. All gene expression levels were log-transformed prior to analysis. The maximal c^2 method of Miller, Siegmund (Miller R. and Siegmund D. Biometrics (1982) 38:1011-1016) and Halpem (Halpem J. (1982) Biometrics 38:1017-1023) was used to determine which gene expression best segregated patients into poor- and good-prognosis subgroups 2000 bootstrap-like simulations were used to estimate the distribution of the maximal c^2 statistics under the null hypothesis of no association.
# [2] = test system: locally advanced rectal cancer; assay: Pelvic recurrence after 5-FU and pelvic radiation by TS promoter genotype (Example 2); assay type: in vivo, human; settings: pre- or post-operative 5-FU and pelvic radiation
# Procedure: Methods: Forty-three (43) patients with locally advanced rectal cancer, who were treated with either pre-operative or post-operative 5-FU and pelvic radiation were analyzed. Genomic DNAs were extracted from paraffin-embedded tissue samples. Patients' genotype for the TS polymorphism was determined by polymerase chain reaction (PCR) amplification of TS promoter region.
smiles,measurement,setting,value
"O=c1[nH]cc(F)c(=O)[nH]1 [5-FU, 5-fluorouracil]",Probability ± SE of 5-yr recurrence,"[1]; total patients n=73, UICC stage II and III, pelvic irradiation 45 Gy with boost up to 54 Gy plus 5-FU infusion after resection",0.53 ± 0.08
same,Median time to recurrence,"[1]; total patients n=73, pelvic irradiation plus 5-FU infusion after resection",57.0 Month
same,"Pelvic recurrences, patients",[2]; TS (2/2) and (2/3) genotypes,37%
same,"Pelvic recurrences, patients",[2]; TS (3/3) genotype,87%
Cc1ccc(-c2cc(C(F)(F)F)nn2-c2ccc(S(N)(=O)=O)cc2)cc1 [celebrex],Effect on neurotoxicity in patients treated with oxaliplatin,"celebrex 200-400 mg day, p<0.01",protecting against neurotoxicity
same,Patients who developed grade II or III neurotoxicity,of 56 patients with celebrex therapy in combination with oxaliplatin/5-FU chemotherapy,3 patients
